One compound from article PMC12549899 (Nature Communications, 2025) can be followed below.

The target of this assay is T1, DrOTOP1 G130W/E384A (Danio rerio, UniProt Q7ZWK8, E384A/G130W).
T1 construct: A previously generated codon-optimized full-length DrOTOP1[8]; (UniProt: Q7ZWK8) construct; expressed in transfected cells; host or cells: HEK-293 (CRL-1573, ATCC)
T1 sequence (Q7ZWK8 1-586 G130W/E384A): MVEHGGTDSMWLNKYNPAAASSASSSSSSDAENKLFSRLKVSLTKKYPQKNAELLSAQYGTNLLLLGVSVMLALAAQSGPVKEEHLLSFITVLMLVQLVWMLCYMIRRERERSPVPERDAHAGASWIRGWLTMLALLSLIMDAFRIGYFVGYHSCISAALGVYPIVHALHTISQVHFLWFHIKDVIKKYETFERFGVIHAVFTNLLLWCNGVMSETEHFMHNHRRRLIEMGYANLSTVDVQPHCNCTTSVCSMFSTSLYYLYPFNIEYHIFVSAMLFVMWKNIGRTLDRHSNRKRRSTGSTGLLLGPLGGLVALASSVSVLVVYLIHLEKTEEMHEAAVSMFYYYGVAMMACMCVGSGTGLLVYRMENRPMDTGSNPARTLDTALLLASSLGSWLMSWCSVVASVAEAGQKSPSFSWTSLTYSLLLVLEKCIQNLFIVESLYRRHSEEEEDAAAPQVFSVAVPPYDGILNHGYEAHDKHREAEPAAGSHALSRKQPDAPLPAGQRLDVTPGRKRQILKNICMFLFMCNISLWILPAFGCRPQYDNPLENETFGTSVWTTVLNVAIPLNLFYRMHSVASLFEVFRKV
The experiment in a line: Whole-cell patch-clamp, inhibition of acid-evoked currents, DrOTOP1 G130W/E384A. In kind it is cell-based, zebrafish (Danio rerio). On the procedure:
Given our limited success in identifying mutations of the central site that disrupt antagonism by C2.2, we tested whether mutations of the central site in a background of G130W (the most impactful outer site mutation) might unmask contributions of this site. Thus, we generated and tested double mutants of G130W with E384A, A274W, and A388W. […] We also measured the dose-dependence of inhibition by C2.2 for both G130W/A388W and G130W/E384A (Fig. 5I, J). […] G130W was tested in parallel to confirm that 100 and 300 μM C2.2 produced dose-dependent inhibition.
HEK-293 cells (CRL-1573, ATCC) were cultured in DMEM (Thermofisher 11995073) containing 10% fetal bovine serum (Life Technology 16000044) and Penicillin-Streptomycin (100 I.U./mL) and (100 µg/mL), respectively. Cells were transfected with WT DrOTOP1 or mutant DrOTOP1 channels in 35 mm petri dishes, with ~ 500 ng DNA and 2 μL TransIT-LT1 transfection reagent (Mirus Bio Corporation, Cat # MIR2300) following the manufacturer’s protocol. All constructs were subcloned into a pcDNA3.1 vector that adds an N-terminal fusion tag consisting of an octahistidine tag followed by eGFP, a Gly-Thr-Gly-Thr linker and a 3C protease cleavage site ([…]) followed by WT DrOTOP1, WT mOTOP1, WT hOTOP1, or mutated DrOTOP1. Point mutations were generated via In-Fusion Cloning (Takara) using single-stranded DNA primers generated through IDT and sequence confirmed by Sanger sequencing (GeneWiz).
Whole-cell patch-clamp recording was performed as previously described[6],[22],[25]. Recordings were made with an Axopatch 200B amplifier, digitized with a Digidata 1322a 16-bit data acquisition system, acquired with pClamp 8.2 and analyzed with Clampfit 10 (Molecular Devices). Recordings were sampled at 5 kHz and filtered at 1 kHz. Patch Pipettes with resistance of […] were fabricated from borosilicate glass, and only recordings with a giga-Ohm seal were used in analysis. Membrane potential was held at −80 mV for the duration of recordings. At the beginning of recordings and between, cells were washed with Tyrode’s solution (see below). Once a giga-Ohm seal was reached, cells were lifted and placed in front of microcapillary tubes controlled by a Fast-Step perfusion system (Warner Instruments) so that extracellular solutions could be rapidly exchanged during each experiment.
Standard Tyrode’s solution consisted of 145 mM NaCl, 5 mM KCl, MgCl2, 2 mM CaCl2, 20 mM D-Glucose, and 10 mM HEPES (for pH 7.4). All other extracellular patch-clamp solutions contained 160 mM NMDG-Cl, 2 mM CaCl2, and the following buffers: 10 mM HEPES (for pH 7.4), 10 mM MES (for pH 6.5-5.5), 10 mM CHES for pH 10, and 10 mM HomoPIPES for (pH 5.0). pH adjusted with HCl. […]
All data are presented as mean ± SEM unless otherwise noted, and each data point represents an independent replicant. Inhibition of compounds was quantified as ((I2peak-I1)/(I2peak))*100, where I1 is the current immediately before wash-off and I2peak is the maximum recovered current (Supplementary Fig. 2). Hill coefficients were determined by the following equation: Y = Bmax*X^h/(Kd^h + X^h). Absolute IC50 was determined by the following equation: Fifty = (Top + Baseline)/2 Y = Bottom + (Top-Bottom)/(1 + ((Top-Bottom)/(Fifty-Bottom) − 1)*(AbsoluteIC50/X)^HillSlope). pH50 curves (Fig. 6G inset) were determined using the following equation: Y = Bottom + (Top-Bottom)/(1 + (EC/X)^HillSlope) where EC = EC50 control. […]

pIC50: −log10 of the molar value.

For `C=C(C)COc1ccccc1NC(=O)c1nc[nH]c1C` [C2.2], for the setting “10 µM, DrOTOP1 G130W/E384A, single cells or mean”, the inhibition at 10 µM worked out at 3.23%. For the same compound, for the setting “DrOTOP1 G130W/E384A, saturated by 100 µM, no further inhibition at 300 µM, read-out: Maximal inhibition (saturation)”, the inhibition at 300 µM was approximately 50%. Under “G130W/E384A, best-fit value”, this compound came in with a HillSlope of 2.538 and a LogAbsoluteIC50 of 1.644. For the same compound, the pIC50 (G130W/E384A, best-fit value, Top fitted, Bottom = 0, read-out: AbsoluteIC50) was 4.36.
